Article PMC8952214 (Pharmaceuticals, 2022)
Like-named read-outs stand apart in the source and are kept apart here.

Key:
[1] = tested on: A/Parma/24/09 H1N1 (Brisbane-like) oseltamivir-resistant virus; conditions: MDCK cells, c.p.e. by neutral red, 48 h; cited from earlier work
[2] = tested on: A/Parma/24/09 H1N1 (Brisbane-like) oseltamivir-resistant virus; conditions: Table 1; turkey erythrocytes; cited from earlier work
[3] = tested on: A/Parma/24/09 H1N1 (Brisbane-like) oseltamivir-resistant virus; type: biochemical, Influenza A virus; conditions: Table 2; turkey erythrocytes; dash = not active
[4] = tested on: A/Parma/24/09 H1N1 (Brisbane-like) oseltamivir-resistant virus; assay: microbe, parasite or virus in culture; type: cell-based, Influenza A virus; conditions: for EC50: Influenza A virus, H1N1, MDCK, 48 h, read-out: EC50 A/Parma H1N1

Cc1ccc(S(=O)(=O)NC(C)c2ccc(-n3ccnc3)cc2)cc1C (stereo not shown) [Compound 1]
EC50 [1]: 0.125 µM | HI Titer A/Parma H1N1 [2]: 0.48 µM

Fc1ccc(CNc2ncnc3[nH]cnc23)cc1 [Compound 2]
HI Titer A/Parma H1N1 [2]: 0.48 µM

COc1ccc(C(=O)Nc2cccc(S(=O)(=O)NCc3ccco3)c2)cc1 [Compound 3]
HI Titer A/Parma H1N1 [2]: 0.48 µM

Cc1ccc(F)cc1NC(=O)COC(=O)c1ccc2ccccc2n1 [Compound 4]
EC50 [1]: 0.125 µM | HI Titer A/Parma H1N1 [2]: 0.48 µM

Cc1ccc2nc(CNc3ccc(C)c(Cl)c3)cc(=O)n2c1 [Compound 5]
HI Titer A/Parma H1N1 [2]: 0.48 µM

O=C(CC1(O)C(=O)Nc2ccccc21)c1ccccn1 (stereo not shown) [Compound 6]
HI Titer A/Parma H1N1 [3]: 0.012 pM | SI (selectivity index) = CC50/EC50, A/Parma H1N1 [4]: 0.34 × 10^2 | EC50 [4]: 0.9 µM

N#Cc1ccc(NC(=O)COC(=O)c2ccccn2)cc1 [Compound 7]
HI Titer A/Parma H1N1 [3]: 0.012 pM | SI (selectivity index) = CC50/EC50, A/Parma H1N1 [4]: 0.34 × 10^2 | EC50 [4]: 0.9 µM

O=C(OCC(=O)N1CCc2ccccc21)c1ccccn1 [Compound 8]
HI Titer A/Parma H1N1 [3]: 0.012 pM

CN(C(=O)COC(=O)c1ccc2ccccc2n1)c1ccccc1 [Compound 9]
HI Titer A/Parma H1N1 [3]: 0.012 pM

CCc1ccc(NC(=O)C(C)OC(=O)c2ccc3ccccc3n2)cc1 (stereo not shown) [Compound 10]
HI Titer A/Parma H1N1 [3]: 0.012 pM

O=C(COC(=O)c1ccc2ccccc2n1)Nc1ccc2c(c1)OCCO2 [Compound 11]
HI Titer A/Parma H1N1 [3]: 0.012 pM

O=C(COC(=O)c1ccc2ccccc2n1)Nc1ccccc1-c1ccccc1 [Compound 12]
HI Titer A/Parma H1N1 [3]: 0.012 pM

Cc1ccc(NC(=O)COC(=O)c2ccccn2)cc1F [Compound 13]
HI Titer A/Parma H1N1 [3]: 0.012 pM | SI (selectivity index) = CC50/EC50, A/Parma H1N1 [4]: 0.44 × 10^2 | EC50 [4]: 0.7 µM

O=C(OCC(=O)N(c1ccccc1)C1CCCCC1)c1ccc2ccccc2n1 [Compound 14]
HI Titer A/Parma H1N1 [3]: 0.012 pM

CC(=O)Nc1ccc(S(=O)(=O)NC(C)c2ccc(-n3ccnc3)cc2)cc1 (stereo not shown) [Compound 16]
HI Titer A/Parma H1N1 [3]: 0.012 pM

CC(NS(=O)(=O)c1ccccc1)c1ccc(-c2ccccc2)cc1 (stereo not shown) [Compound 17]
HI Titer A/Parma H1N1 [3]: 0.012 pM

Nc1cc(F)ccc1C(=O)OCC(=O)Nc1ccccc1 [Compound 18]
HI Titer A/Parma H1N1 [3]: 0.012 pM

COc1ccc(NC(=O)COC(=O)c2ccc3c(c2)CCC(=O)N3)cc1 [Compound 19]
HI Titer A/Parma H1N1 [3]: 0.012 pM

O=C(COC(=O)c1ccccn1)Nc1ccc(-c2ccccc2)cc1 [Compound 20]
HI Titer A/Parma H1N1 [3]: 0.012 pM

O=C1CCCN1c1ccc(CNS(=O)(=O)c2ccc(F)cc2)cc1 [Compound 23]
HI Titer A/Parma H1N1 [3]: 0.012 pM

O=C(COC(=O)c1ccccn1)Nc1ccc2c(c1)CCC2 [Compound 24]
HI Titer A/Parma H1N1 [3]: 0.047 pM

COc1ccc(S(=O)(=O)NCc2ccc(-n3ccnc3)cc2)cc1F [Compound 25]
HI Titer A/Parma H1N1 [3]: 0.012 pM | SI (selectivity index) = CC50/EC50, A/Parma H1N1 [4]: 0.44 × 10^2 | EC50 [4]: 0.7 µM

Cc1nc(-c2cccc(NC(=O)COC(=O)c3ccc4ccccc4n3)c2)cs1 [Compound 26]
HI Titer A/Parma H1N1 [3]: 0.047 pM

Cc1ccc(S(=O)(=O)Nc2ccc(-n3ccnc3)c(Cl)c2)cc1 [Compound 28]
HI Titer A/Parma H1N1 [3]: 0.047 pM
